Laboratory results: US20230118911A1, “PROTEOLYSIS TARGETING CHIMERA (PROTAC) FOR DEGRADATION OF AURORA A-KINASE” (Julius-Maximilians-Universitaet Wuerzburg, priority 2020, published 2023)
Values belong to the compound of their own block, whether it stands above or below them.

What was measured:
[1] = system: MV4-11 cells; test: alamarBlue cell viability assay; format: cell-based; settings: Homo sapiens, 1 μM (refreshed every 24 h), 72 hours, read-out: viable cells compared to control cells
Method: The alamarBlue assay (Thermo Fisher Scientific) was performed according to manufacturer's instruction using HS Cell Viability Reagent. The fluorescence was measured in Tecan Infinite-200 using a fluorescence excitation wavelength of 550 and an emission of 600 nm.

[2] = system: MV4-11 cells; test: Annexin-PI FACS apoptosis assay in MV4-11 cells; format: cell-based, human; settings: 0.5 μM, 72 hours
Method: (§2) For Annexin-PI FACS, the medium in which the cells were cultured was combined with the cells.
(§3) The cells were washed once with ice-cold PBS, resuspended in 100 μl Annexin V Binding buffer (10 mM HEPES pH 7.4, 140 mM NaCl, 2.5 mM CaCl2)) with 2 μl of Annexin V/Pacific Blue dye and incubated for 15 minutes in the dark at room temperature. 400 μl Annexin V Binding buffer with propidium iodide (18.5 μM) was added and the samples were stored cold and in the dark until analysis.

[3] = system: IMR5 cells; test: Annexin-PI FACS apoptosis assay in IMR5 cells with or without Aurora-A T217D expression; settings: 0.5 μM, 72 hours, doxycycline-induced Aurora-A T217D vs EtOH control
Method: as §2, §3
Aurora-AT^217D is a functional mutant of Aurora-A. IMR5 cells express Aurora-A^T217D upon incubation with doxycycline (Dox) but not upon incubation with ethanol (control-EtOH).

[4] = target: T1, Aurora-A (Homo sapiens, UniProt O14965); test: Immunoblot of endogenous Aurora-A, MV4-11 cells treated with various concentrations for 6 hours; format: cell-based; parameters: resulting in degradation of endogenous Aurora-A; endogenous in cells; host or cells: MV4-11
T1 sequence (O14965 1-403): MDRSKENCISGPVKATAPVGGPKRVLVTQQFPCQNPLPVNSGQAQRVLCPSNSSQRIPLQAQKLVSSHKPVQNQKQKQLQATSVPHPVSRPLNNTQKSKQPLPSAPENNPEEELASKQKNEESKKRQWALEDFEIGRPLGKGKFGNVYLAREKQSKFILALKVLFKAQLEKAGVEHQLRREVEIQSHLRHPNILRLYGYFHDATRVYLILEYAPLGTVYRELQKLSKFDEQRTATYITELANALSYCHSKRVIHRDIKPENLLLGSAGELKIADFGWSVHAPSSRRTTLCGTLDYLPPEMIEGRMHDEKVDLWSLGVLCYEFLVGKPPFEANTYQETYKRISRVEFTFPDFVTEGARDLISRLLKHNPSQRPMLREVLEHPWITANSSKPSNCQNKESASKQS
Method: (§1) Then, the cells were lysed in RIPA lysis buffer (50 mM HEPES pH 7.9, 140 mM NaCl, 1 mM EDTA, 1% Triton X-100, 0.1% SDS, 0.1% sodium deoxycholate) containing protease and phosphatase inhibitors (Sigma) and incubated for 20 minutes at 4° C. in head-over-tail. Lysates were cleared by centrifugation. Protein quantification was done using BCA assay and equal amounts of proteins were separated by BisTris-PAGE and transferred to PVDF membranes (Millipore). The membranes were blocked with 5% (w/v) nonfat dry milk dissolved in TBS-T (20 mM Tris/HCl, pH 7.5, 150 mM NaCl, and 0.1% (v/v) Tween 20) at RT for 1 hour and then incubated with the primary antibody overnight at 4° C. Visualization was done with HRP-labeled secondary antibodies and detected using Chemiluminescent HRP substrate (Millipore) in LAS3000 or LAS4000 Mini (Fuji). The signal was quantified using ImageJ (version 1.52q) or Image Studio Lite (LI-COR Biosciences, Version 5.2.5). […] Error bars represent standard deviations of four biological replicate experiments.
Afterwards, cells were lysed in RIPA lysis buffer (50 mM HEPES pH 7.9, 140 mM NaCl, 1 mM EDTA, 1% Triton X-100, 0.1% SDS, 0.1% sodium deoxycholate) containing protease and phosphatase inhibitors (Sigma) and incubated for 20 minutes at 4° C. in head-over-tail. Further processing of resulting cell lysates and immunoblotting was performed as described above.

[5] = target: T1, Aurora-A; test: Immunoblot of endogenous Aurora-A in MV4-11 cells after a single dose of degrader; format: cell-based; parameters: resulting in degradation of endogenous Aurora-A; endogenous in cells; host or cells: MV4-11
Method: as §1

Aurora-A levels ([4]; 10 nM): significantly decreased | Aurora-A degradation ([4]; 100 nM and 1 μM): almost complete degradation
Compound: COc1cc(Nc2ncc3c(n2)-c2ccc(Cl)cc2C(c2c(F)cccc2OC)=NC3)ccc1C(=O)NCCOCCOCCNC(=O)COc1cccc2c1C(=O)N(C1CCC(=O)NC1=O)C2=O (stereo not drawn) [JB170, thalidomide-PEG2-alisertib]
viability at 1 µM [1]: 32% | Annexin-positive cells [2]: 56% | effect of Aurora-A T217D expression on induced apoptosis [3]: completely reverted the induction of apoptosis | Hook effect on Aurora-A depleting activity ([4]; high concentrations): reversal of the Aurora-A depleting activity was observed

Compound: COc1cc(Nc2ncc3c(n2)-c2ccc(Cl)cc2C(c2c(F)cccc2OC)=NC3)ccc1C(=O)O [alisertib, reference compound]
Aurora-A levels ([4]; 1 μM): did not decrease Aurora-A levels, but induced a significant increase

reduction of Aurora-A protein level ([5]; single dose (0.1 μM, 1 μM), compared to control cells): 62%
Compound: thalidomide-PEG3-alisertib [JB158]

Compound: COc1cc(Nc2ncc3c(n2)-c2ccc(Cl)cc2C(c2c(F)cccc2OC)=NC3)ccc1C(=O)NCCOCCOCCC(=O)N[C@H](C(=O)N1C[C@H](O)C[C@H]1C(=O)NCc1ccc(-c2scnc2C)cc1)C(C)(C)C [JB160, VHL-PEG2-alisertib]
Aurora-A steady-state levels ([5]; single dose, VHL-ligand-based degraders): neither of the VHL-ligand-based degraders JB160 and JB161 reduced Aurora-A steady-state levels
